Experimental findings from PubChem BioAssay (NCI) are described below.

Values joined by “and” are separate entries in the source; they are usually repeats but may differ in a detail not shown here. Equal values may be shown once.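 The compound was tested at five concentrations on cells cultured in 96-well plates, with a 48-hour exposure period. At the GI50, growth is halved. Definition used: TGI = concentration required for complete inhibition of growth.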

What all share (test): NCI anticancer screen, dose series, 48 h
Assay [1] has as its system ACHN renal.
The test system of assay [2] is HOP-92 NSCLC.
The test system of assay [3] is M14 melanoma.
Assay [4] relates to OVCAR-3 ovarian.
The test system of assay [5] is SK-MEL-5 melanoma.
Assay [6] relates to TK-10 renal.
For assay [7], the system named is UO-31 renal.
The subject of assay [8] is UACC-257 melanoma.

For the compound `COc1ccc(-c2oc3cc(O)c(OC)c(O)c3c(=O)c2OC2OC(CO)C(O)C(O)C2O)cc1` (configuration not stated), the TGI in assay [1], in assay [2], in assay [3], in assay [4], in assay [5] and in assay [6] was above 100 µM in each case. In addition, the TGI in assay [7] was above 100 µM.

For `S=c1[nH]nc(COc2ccc(Cl)cc2)o1`, the TGI in assay [1], in assay [2], in assay [3], in assay [4], in assay [5] and in assay [6] was above 100 µM in each case. Further, the TGI in assay [8] and in assay [7] was above 100 µM in each case.

As to `CCCCN(CCCC)C(=O)C(=O)CC(=O)c1ccc(Br)cc1`, the TGI in assay [1], in assay [2], in assay [3], in assay [4], in assay [5] and in assay [6] was above 100 µM each time. Moreover, the TGI in assay [8] and in assay [7] was above 100 µM in each case.

Consider `Cc1cc(Br)cc(C)c1NC(=O)C(=O)CC(=O)c1sc(-n2nc(-c3ccccc3)cc2-c2ccccc2)nc1C`, for which the TGI in assay [1], in assay [2], in assay [3], in assay [4], in assay [6] and in assay [8] was above 100 µM throughout. In assay [7], this compound yielded a TGI above 100 µM.

For `N[C@H]1C2C3CC4C5CC(C42)C1(c1ccccc1)C53` (some centres not stated), the TGI in assay [1], in assay [2], in assay [3], in assay [4], in assay [5] and in assay [6] was above 100 µM throughout. The TGI in assay [7] is above 100 µM.

Take `COC1C=C(Nc2cccc(Cl)c2)C(=O)C1` (configuration not stated): the TGI in assay [1], in assay [2], in assay [3], in assay [4], in assay [5] and in assay [6] was above 100 µM in each case. In addition, the TGI in assay [8] and in assay [7] was above 100 µM in each case.

On to `CC1=C(C(=O)Nc2ccccc2)C(c2ccc3c(c2)OCO3)C(C(=O)Nc2ccccc2)=C(C)N1`, for which the TGI in assay [1], in assay [3], in assay [4], in assay [5], in assay [6] and in assay [8] was above 100 µM in each case. Moreover, the TGI in assay [7] was above 100 µM.

For `C/C(=N\NC(=S)Nc1ccc(C(=O)O)cc1)c1ccccn1`, the TGI is 30.4 µM in assay [1]; above 100 µM in assay [2]; 28.7 µM in assay [3]; 47.8 µM in assay [4]; 32.8 µM in assay [5]; above 100 µM in assay [6]. Also, the TGI in assay [8] was 62.1 µM; in assay [7], 39.8 µM.

With `CCOP(=O)(OCC)C1C(=O)O[C@H]2CCCC[C@@H]12` (some centres not stated), the TGI in assay [1], in assay [3], in assay [4], in assay [5], in assay [6] and in assay [8] was above 100 µM in each case.

Turning to `O=[N+]([O-])c1ccc(-c2ccc(/C=N/n3c(-c4ccc(Cl)cc4)n[nH]c3=S)o2)cc1`, the TGI in assay [1] was above 60.8 µM; in assay [2], above 94.3 µM; in assay [3], 32.3 µM; in assay [4], above 66.8 µM; in assay [5] it was 49.8 µM; in assay [6] it was above 64.7 µM. For the same compound, the TGI in assay [8] and in assay [7] was above 100 µM in each case.

In the case of `Cc1cc(C)nc(NS(=O)(=O)c2ccc(Nc3c4ccccc4nc4c(C(=O)Nc5ccc(S(N)(=O)=O)cc5)cccc34)cc2)n1`, the TGI in assay [1], in assay [2], in assay [3], in assay [4], in assay [5] and in assay [8] was above 100 µM in each case. In assay [7], this compound came in with a TGI above 100 µM.

Consider `CC1=C(C(=O)Nc2ccc([N+](=O)[O-])cc2)C(c2ccco2)C(C(=O)Nc2ccc([N+](=O)[O-])cc2)=C(C)N1`, for which the TGI in assay [1] is 53.4 µM; in assay [2] it was 56.8 µM; in assay [3], above 100 µM; in assay [4], 88.3 µM; in assay [5], 93.4 µM; in assay [6] it was 94.3 µM. Moreover, the TGI in assay [8] was 98.5 µM; in assay [7] it was 60.1 µM.

As to `O/N=C1/C(=C/c2ccc(F)cc2)CCCC1C(NO)c1ccc(F)cc1` (configuration not stated), the TGI in assay [1] is above 100 µM; in assay [3], above 100 µM; in assay [4], 72.8 µM; in assay [5], 39.2 µM; in assay [6] it was above 100 µM; in assay [8], 64.5 µM. This compound returned a TGI in assay [7] of 72.5 µM.

`CCOC(=O)c1cccc(=O)c(C(=O)OCC)c1`: the TGI in assay [1], in assay [3], in assay [4], in assay [5], in assay [6] and in assay [8] was above 100 µM in each case. Also, the TGI in assay [7] was above 100 µM.

`CC(C)=CC(=O)CC(=O)C(=O)Nc1ccc(C)c(C)c1`: the TGI in assay [1], in assay [2], in assay [3], in assay [4], in assay [6] and in assay [8] was above 100 µM in each case. The TGI in assay [7] is above 100 µM.

In the case of `CCOC(=O)Cc1c(Cc2[nH]c(C(=O)OCc3ccccc3)c(CC(=O)OCC)c2CC(=O)OCC)[nH]c(C(=O)OCc2ccccc2)c1CC(=O)OCC`, the TGI in assay [1], in assay [2], in assay [3], in assay [4], in assay [5] and in assay [7] was above 100 µM in each case.

With `CC1=COC(=O)c2ccccc2N1`, the TGI in assay [1], in assay [2], in assay [3], in assay [4], in assay [5] and in assay [6] was above 100 µM throughout. The TGI in assay [7] is above 100 µM.

On to `C=C(c1ccccc1N)[C@@]1(O)C[C@H](/C(=C\C)CO)C[C@@H]1NCc1ccccc1`, for which the TGI in assay [1] is above 100 µM; in assay [2], 27.5 µM; in assay [3], 28.5 µM; in assay [4] it was 45.8 µM; in assay [5], 32.8 µM; in assay [6], 44.1 µM. In addition, the figures for the TGI in assay [8] and in assay [7] were 32.3 µM and 42.3 µM, respectively.

For `N#Cc1ccccc1NC(=O)C(=O)C(C(=O)c1ccccc1-c1ccccc1)C1OC(=O)c2ccccc21` (configuration not stated), the TGI in assay [1] is 89.4 µM; in assay [2], 38.8 µM; in assay [3], 30.6 µM; in assay [4], 32.7 µM; in assay [5], above 100 µM; in assay [8], 53.8 µM.

As for `O=C(O)CN(c1ccc(Cl)cc1)S(=O)(=O)c1ccccc1`, the TGI in assay [1], in assay [2], in assay [3], in assay [4], in assay [5] and in assay [6] was above 100 µM each time. Moreover, the TGI in assay [8] and in assay [7] was above 100 µM each time.

Consider `CCCCCCC(=O)C/C(CCC(=O)N(Cc1ccccc1)Cc1ccccc1)=N\Nc1ccc([N+](=O)[O-])cc1[N+](=O)[O-]`, for which the TGI in assay [1], in assay [2], in assay [3], in assay [4], in assay [5] and in assay [6] was above 100 µM in each case. The TGI in assay [8] and in assay [7] was above 100 µM throughout.

For `Cn1ncc2cc3c(Nc4ccc(Cl)cc4)cccc3nc21`, the TGI in assay [1] was 72.5 µM; in assay [2], 47.7 µM; in assay [3], 46.3 µM; in assay [4], 44 µM; in assay [5] it was 29.4 µM; in assay [6], above 100 µM. The figures for the TGI in assay [8] and in assay [7] were 38.3 µM and 88.7 µM, respectively.

Consider `CC(Cl)(/C=C/Cl)C(Cl)/C=C/C(Cl)(CCl)CBr` (configuration not stated), for which the TGI in assay [1] came to 18.1 µM; in assay [2], 4.01 µM; in assay [3] it was 7.89 µM; in assay [4] it was 25.3 µM; in assay [5] it was 25.1 µM; in assay [6] it was 20.5 µM. Moreover, the results for the TGI in assay [8] and in assay [7] were 7.02 µM and 28.6 µM, respectively.

As to `O=C1C2=C(c3ccccc31)C(c1ccc(Cl)cc1)N1C(=O)CCSC1=N2` (configuration not stated), the TGI in assay [1], in assay [2], in assay [3], in assay [4], in assay [5] and in assay [6] was above 100 µM in each case. Further, the TGI in assay [8] and in assay [7] was above 100 µM each time.

Consider `CCOC(=O)CCC(NC(=O)c1ccc(N=Cc2nc3cc(C(F)(F)F)ccc3nc2-c2ccccc2)cc1)C(=O)OCC` (configuration not stated), for which the GI50 was 46.3 µM in assay [1]; 12.5 µM in assay [2]; above 100 µM in assay [3]; above 100 µM in assay [4]; above 100 µM in assay [5]; 21.6 µM in assay [6]. For the same compound, the GI50 in assay [8] and in assay [7] was above 100 µM each time. Besides, the TGI in assay [1] is 50 µM and > 100 µM; in assay [2], 18.3 µM and 45.8 µM; in assay [3] it was 50 µM and > 100 µM; in assay [4], 50 µM and > 100 µM; in assay [5], 50 µM and > 100 µM; in assay [6], 29.5 µM and 58.2 µM. The TGI in assay [8] and in assay [7] was above 100 µM in each case.

`CC(=O)[CH-]C(=O)c1ccccc1.CC(=O)[CH-]C(=O)c1ccccc1.CCN(CC)CC[O-].CCN(CC)CC[O-].Cl.[Ti+4]`: the GI50 in assay [1] was 39.5 µM; in assay [3] it was 22.5 µM; in assay [4], 28.3 µM; in assay [5], 27.9 µM; in assay [8], 24.3 µM; in assay [7] it was 21.1 µM. The TGI is above 100 µM in assay [1]; 45.9 µM in assay [3]; above 100 µM in assay [4]; above 100 µM in assay [5]; 96.1 µM in assay [8]; 74.8 µM in assay [7].

As to `COc1c(OC(C)=O)ccc(/C=C2\N=C(C)OC2=O)c1[N+](=O)[O-]`, the TGI in assay [1], in assay [2], in assay [3], in assay [5], in assay [6] and in assay [8] was above 100 µM throughout. Besides, in assay [7], the TGI was above 100 µM.

As for `C/C(=N\N(C)C)c1sc(-n2nc(-c3ccccc3)cc2-c2ccccc2)nc1C`, the TGI in assay [1], in assay [2], in assay [3], in assay [4], in assay [5] and in assay [6] was above 100 µM throughout. Moreover, the TGI in assay [8] and in assay [7] was above 100 µM each time.

As to `CC(=O)Oc1c(C)n(CCCl)ccc1=O`, the TGI in assay [1] is above 100 µM; in assay [3] it was above 100 µM; in assay [4] it was above 100 µM; in assay [5], above 100 µM; in assay [6], 73.8 µM; in assay [8], above 100 µM. In assay [7], this compound came in with a TGI above 100 µM.

For `NNC(=O)/C(=C/c1cccc([N+](=O)[O-])c1)NC(=O)c1ccccc1`, the TGI in assay [1], in assay [2], in assay [3], in assay [4], in assay [5] and in assay [6] was above 100 µM in each case. Moreover, the TGI in assay [8] and in assay [7] was above 100 µM in each case.

Turning to `Cn1nc(-c2ccccc2NC(=O)C(F)(F)F)c(=O)n(C)c1=S`, the TGI in assay [1] was 77.5 µM; in assay [2], 50.7 µM; in assay [3], 45 µM; in assay [4], 40.6 µM; in assay [5], above 100 µM; in assay [6], above 100 µM. The compound also showed a TGI in assay [7] of 74.4 µM.
